Test results published in patent EP0174371B1, “TRIPHENYLMETHANE DERIVATIVES AND METHOD FOR DETERMINING OXIDATIVE SUBSTANCES USING THEM AS COLOR-FORMING COMPONENT” (WAKO PURE CHEMICAL INDUSTRIES, LTD., priority 1984, dated 1985).
Values after ≈ are worked out from the molar mass of the structure shown.

Legend:
physchem = conditions: pH 7.2, aqueous buffer
[1] = Solubility in water around the neutral pH range; conditions: for solubility in water: pH 7.2 (around the neutral range); for solubility in water relative to BSPM: pH 7.2, multiple of the solubility of BSPM
[2] = system: H202-POD (peroxidase) system; experiment: Oxidation coloring in the H2O2-peroxidase system; conditions: statement in words
Description: The triphenyl methane derivatives according to the present invention in which two groups ―O(CH2)nSO3M (M and n are the same meanings as given above), are present, are unexpectedly different from the triphenyl methane derivative in which two sulfonic acid groups are directly bonded to the benzene nucleus, since they are excellent in oxidation coloring in the H202-POD system, and can be satisfactorily used for the purpose aimed at by the present invention.

[3] = known triphenyl methane type leuco coloring matters, statement in words; cited from earlier work

Structure (SMILES) | solubility in water [1] | solubility in water relative to BSPM [1] | solubility in water in the neutral pH-range [3] | also measured
CCN(CC)c1ccc(C(c2ccc(N(CC)CC)cc2)c2ccccc2S(=O)(=O)O)cc1 [BSPM, bis(4-diethylaminophenyl)-2-sulfophenyl methane] | – | – | – | solubility (physchem): 500 µM (≈ 233 µg/mL)
CCN(CC)c1ccc(C(c2ccc(N(CC)CC)cc2)c2ccc(OCCCS(=O)(=O)O)c(OCCCS(=O)(=O)O)c2)cc1 [BSdiproPM, bis(4-N,N-diethylaminophenyl)-3,4-disodium sulfopropoxyphenyl methane] | ≥ 15 mM | not less than 30 times | – | –
CCN(CC)c1ccc(C(c2ccc(OCCCS(=O)(=O)O)cc2)c2ccc(N(CC)CC)cc2)cc1 [BSproPM, bis(4-N,N-diethylaminophenyl)-4-sodium sulfopropoxyphenyl methane] | 5 mM | 10 times | – | –
CCN(CC)c1ccc(C(c2ccc(N(CC)CC)cc2)c2ccc(S(=O)(=O)O)cc2S(=O)(=O)O)cc1 [bis(4-diethylaminopheny)-2,4-disulfophenyl methane] | – | – | – | oxidation coloring in the H202-POD system [2]: no coloring takes place
CN(C)c1ccc(C(c2ccccc2)c2ccc(N(C)C)cc2)cc1 [leuco malachite green] | – | – | difficult to dissolve into water in the neutral pH-range | –
CN(C)c1ccc(C(c2ccc(N(C)C)cc2)c2ccc(N(C)C)cc2)cc1 [leucocrystal violet] | – | – | difficult to dissolve into water in the neutral pH-range | –
